Measured values: publication PMC3261798, “Design, Synthesis, and Biological Evaluation of PKD Inhibitors” (Pharmaceutics, 2011)
Structures can show the parent of a compound that is named as a salt.

What was measured:
PKD1 [1] = target: T1, PKD1 (Homo sapiens, UniProt Q15139); test: In vitro radiometric PKD kinase activity assay; type: biochemical; set-up: purchased Biomol International; settings: for IC50: read-out: IC50 Radiometric PKD1; for inhibitory activity against PKD (in words): preliminary biological data for kmg-NB5-13 and kmg-NB5-15
T1 sequence (Q15139 1-912): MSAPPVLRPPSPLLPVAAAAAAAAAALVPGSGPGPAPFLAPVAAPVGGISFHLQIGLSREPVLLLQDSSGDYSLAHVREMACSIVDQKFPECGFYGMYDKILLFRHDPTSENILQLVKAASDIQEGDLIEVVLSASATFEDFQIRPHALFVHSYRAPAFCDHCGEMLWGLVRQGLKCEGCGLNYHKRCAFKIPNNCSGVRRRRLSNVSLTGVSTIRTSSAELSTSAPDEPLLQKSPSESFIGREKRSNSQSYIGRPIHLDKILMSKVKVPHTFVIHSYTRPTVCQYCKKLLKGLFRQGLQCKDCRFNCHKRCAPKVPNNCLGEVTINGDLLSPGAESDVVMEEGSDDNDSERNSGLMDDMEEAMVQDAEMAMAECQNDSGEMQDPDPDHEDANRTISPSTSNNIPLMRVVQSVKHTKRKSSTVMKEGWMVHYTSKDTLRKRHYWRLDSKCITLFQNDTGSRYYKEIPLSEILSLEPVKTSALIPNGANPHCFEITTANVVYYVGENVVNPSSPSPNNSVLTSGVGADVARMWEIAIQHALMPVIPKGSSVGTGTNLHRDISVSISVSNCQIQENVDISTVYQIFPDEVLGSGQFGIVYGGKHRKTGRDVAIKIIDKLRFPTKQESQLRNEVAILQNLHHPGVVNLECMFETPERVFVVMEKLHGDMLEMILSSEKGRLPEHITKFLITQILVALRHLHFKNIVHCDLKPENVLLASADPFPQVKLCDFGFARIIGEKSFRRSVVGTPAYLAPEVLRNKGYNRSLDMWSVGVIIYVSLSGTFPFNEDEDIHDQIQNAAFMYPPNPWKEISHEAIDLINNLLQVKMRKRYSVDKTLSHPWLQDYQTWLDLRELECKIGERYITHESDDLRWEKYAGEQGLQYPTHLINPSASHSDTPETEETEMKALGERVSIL
Description: In vitro radiometric PKD kinase assays were conducted as previously described. Briefly, 50 ng recombinant human PKD1 (Biomol International, Plymouth Meeting, PA, USA) was incubated at 30 °C for 10 min with a reaction mixture containing 2.5 μg syntide-2 (Sigma), 70 μM ATP, and 1 μCi γ-^32 P-ATP (PerkinElmer, Boston, MA, USA) in kinase buffer (50 mM Tris-HCl pH 7.5, […], and 10 mM […]). 25 μL of the reaction mixture was then spotted on Whatman P81 filter paper (Whatman Inc., Clifton, NJ, USA), and filter papers were washed three times with 0.5% phosphoric acid, dried, then counted using a Beckman LS6500 multi-purpose scintillation counter.

PKD1 [2] = target: T1, PKD1; test: IMAP-based PKD Fluorescence Polarization (FP) assay, automated HTS format; type: biochemical; settings: mean ± SEM, n = number of independent experiments
Description: An automated, HTS formatted IMAP-based PKD Fluorescence Polarization (FP) assay was used to assess the specificity of the PKD analogs as previously described. […] Kinase reactions were incubated for 90 min at room temperature and stopped by the addition of IMAP binding reagent. Assay plates were then incubated for 2 h and IMAP-based FP data were captured on a Molecular Devices Spectra-Max M5 (Sunnyvale, CA, USA).

[3] = mean ± SEM, n = number of independent experiments

Row | SMILES | melting point | IC50 IMAP-FP PKD1 (PKD1 [2]) | other results
1 | O=C1NCCSc2c1sc1ccc(OCc3ccccc3)cc21 [kb-NB123-66, 3,4-Dihydro-9-benzyloxy-[1]benzothieno[2,3-f]-1,4-thiazepin-5(2H)-one] | 247 to 249 °C | not inhibitory | 
2 | COc1ccc2oc3c(c2c1)CCCN(C)C3=O [kb-NB96-04, 7-Methoxy-2-methyl-2,3,4,5-tetrahydro-[1]benzoxolo[2,3-c]azepin-1-one] | 150 to 151 °C |  | IC50 (PKD1 [2]): > 100 µM
3 | CC(=O)Oc1ccc2oc3c(c2c1)CCCNC3=O [kb-NB123-36, 7-Acetoxy-2,3,4,5-tetrahydro-[1]benzoxolo[2,3-c]azepin-1-one] | 196 to 197 °C |  | IC50 (PKD1 [2]): 84.9 ± 3.21 µM
4 | O=C1NCCc2c1[nH]c1ccc(OCc3ccccc3)cc21 [kb-NB123-52, 2,3,4,9-Tetrahydro-6-benzyloxy-1H-pyrido[3,4-b]indol-1-one] | 208 to 210 °C | not inhibitory | 
5 | C=CCOc1ccc2oc3c(c2c1Cl)CCCNC3=O [kb-NB96-50, 7-Allyloxy-6-chloro-2,3,4,5-tetrahydro-[1]benzoxolo[2,3-c]azepin-1-one] | 192 to 194 °C | not inhibitory | 
6 | CC(=O)Oc1ccc2oc3c(c2c1)CCCN(C(C)=O)C3=O [kb-NB123-45-1, 2-Acetyl-1-oxo-2,3,4,5-tetrahydro-[1]benzoxolo[2,3-c]azepin-7-yl acetate] | 155 to 157 °C | not inhibitory | 
7 | CC(C)(C)[Si](C)(C)Oc1ccc2oc(=O)c3c(c2c1)CCCN3 [kb-NB77-78, 9-(tert-Butyldimethylsilyloxy)-1,2,3,4-tetrahydrochromeno[3,4-b]pyridin-5-one] | 117 to 119 °C | not inhibitory | 
8 | O=C1NCCCc2c1[nH]c1ccc(OCc3ccccc3)cc21 [kb-NB123-53, 3,4,5,10-Tetrahydro-7-benzyloxy-azepino[3,4-b]indol-1(2H)-one] |  | not inhibitory | 
9 | CC=Cc1c(O)ccc2oc3c(c12)CCCNC3=O [kb-NB96-30, 6-[(E)-2-(Prop-1-enyl) ]-7-hydroxy-2,3,4,5-tetrahydro-[1]benzoxolo[2,3-c]azepin-1-one] | > 300 °C |  | 
10 | CC(C)(C)[Si](C)(C)Oc1ccc2oc3c(c2c1)CCCNC3=O [kb-NB77-77, 7-(tert-Butyldimethylsilyloxy)-2,3,4,5-tetrahydro-[1]benzoxolo[2,3-c]azepin-1-one] | 209 to 212 °C | not inhibitory | 
11 | COc1ccc2oc3c(c2c1)CCNC3=O [kb-NB123-32, 6-Methoxy-3,4-dihydrobenzoxolo[2,3-c]pyridin-1(2H)-one] | 237 to 241 °C |  | IC50 (PKD1 [2]): > 100 µM
12 | O=C1NCCCc2c1oc1cc(Cl)c(O)c(Cl)c21 [kb-NB96-43, 6,8-Dichloro-7-hydroxy-2,3,4,5-tetrahydro-[1]benzoxolo[2,3-c]azepin-1-one] | 298 to 301 °C | not inhibitory | 
13 | COc1ccc2oc3c(c2c1)CCN(C)C3=O [kb-NB123-37, 6-Methoxy-2-methyl-3,4-dihydrobenzoxolo[2,3-c]pyridin-1(2H)-one] | 168 to 172 °C | not inhibitory | 
14 | CC(=O)Nc1ccc2[nH]c3c(c2c1)CCNC3=O [kb-NB123-93, N-(2,3,4,9-Tetrahydro-1-oxo-1H-pyrido[3,4-b]indol-6-yl)-acetamide] | > 300 °C | not inhibitory | 
15 | O=C1NCCCc2c1oc1cc(Cl)c(O)cc21 [kb-NB96-47-5, 8-Chloro-7-hydroxy-2,3,4,5-tetrahydro-[1]benzoxolo[2,3-c]azepin-1-one] | 327 to 332 °C |  | 
16 | O=C(OCc1ccccc1)N1CCCc2c1c(=O)oc1ccc(O)cc21 [kb-NB77-91, Benzyl 9-hydroxy-5-oxo-1,2,3,4-tetrahydrochromeno[3,4-b]pyridine-4-carboxylate] | 235 to 237 °C | not inhibitory | 
17 | C=CCOc1ccc2oc(=O)c3c(c2c1)CCCN3 [kb-NB77-83, 9-Allyloxy-1,2,3,4-tetrahydrochromeno[3,4-b]pyridin-5-one] | 90 to 91 °C | not inhibitory | 

Further lines, with some results ahead:

Row | melting point | IC50 IMAP-FP PKD1 (PKD1 [2]) | SMILES | other results
18 | 229 to 230 °C (dec.) |  | O=C(CCl)Nc1ccc2sc3c(c2c1)SCCNC3=O [mcf292-09, 3,4-Dihydro-9-(2-chloroacetamido)-[1]benzothieno[2,3-f]-1,4-thiazepin-5(2H)-one] | IC50 (PKD1 [1]; [3]): 1.5 µM
19 | 230 to 232 °C (dec.) |  | Oc1ccc2oc3c(c2c1)CCCN1CCN=C31 [kb-NB165-15, 9-Hydroxy-3,5,6,7-tetrahydro-2H-benzoxolo[2,3-c]imidazo[1,2-a]azepine] | IC50 Radiometric PKD1 (PKD1 [1]; [3]): not inhibitory
20 | 282 to 284 °C |  | CN1CCCc2c(oc3ccc(O)cc23)C1=O [kb-NB142-25, 7-Hydroxy-2-methyl-2,3,4,5-tetrahydro-[1]benzoxolo[2,3-c]azepin-1-one] | IC50 (PKD1 [1]; [3]): 4 ± 1.1 µM
21 | > 300 °C | not inhibitory | CC(=O)Nc1ccc2[nH]c3c(c2c1)CCCNC3=O [kb-NB123-94] | 
22 | 288 °C (dec.) |  | COc1nc(OC)c2sc3c(c2n1)SCCNC3=O [kmg-NB5-13C, 2,4-Dimethoxy-7H,8H,9H-1,4-thiazepino[7′,6′-5,4]thiopheno[3,2-d]pyrimidin-6-one] | IC50 (PKD1 [1]; [3]): > 30 µM; inhibitory activity against PKD (in words) (PKD1 [1]): absence of inhibitory activity
23 | 265 to 268 °C |  | CN1CCSc2c(sc3ccc(O)cc23)C1=O [kb-NB165-17, 2,3-Dihydro-4-methyl-9-hydroxy-[1]benzothieno[2,3-f]-1,4-thiazepin-5(2H)-one] | IC50 (PKD1 [1]; [3]): 0.45 ± 0.05 µM
24 | 220 to 224 °C |  | Cc1ccc(S(=O)(=O)NN=C2CCNC(=O)c3oc4ccc(O)cc4c32)cc1 [kb-NB142-11, 7-Hydroxy-5-[2-{(4-methylphenyl)sulfony}hydrazono]-2,3,4,5-tetrahydro-[1]benzoxolo[2,3-c]azepin-1-one] | IC50 (PKD1 [2]): 38.2 ± 1.17 µM
25 | 160 to 161 °C |  | COc1ccc2sc3c(c2c1)SCCN(C)C3=O [kb-NB165-16, 2,3-Dihydro-4-methyl-9-methoxy-[1]benzothieno[2,3-f]-1,4-thiazepin-5(2H)-one] | IC50 (PKD1 [1]; [3]): 4.57 ± 0.78 µM
26 | 335.9 °C (dec.) |  | O=C1NCCSc2c1sc1cnc(O)nc21 (as salt: hydrochloride) [kmg-NB4-69A, 2-Hydroxy-7H,8H,9H-1,4-thiazepino[7′,6′-5,4]thiopheno[3,2-d]pyrimidin-6-one] | 
27 | 295 °C (dec.) |  | COc1nc(O)c2sc3c(c2n1)SCCNC3=O [kmg-NB5-15A, 4-Hydroxy-2-methoxy-7H,8H,9H-1,4-thiazepino[7′,6′-5,4]thiopheno[3,2-d]pyrimidin-6-one] | inhibitory activity against PKD (in words) (PKD1 [1]): absence of inhibitory activity
28 | 253 to 253.3 °C |  | O=C1NCCSc2c1sc1ccc(N=C=S)cc21 [mcf292-05, 3,4-Dihydro-9-isothiocyanato-[1]benzothieno[2,3-f]-1,4-thiazepin-5(2H)-one] | IC50 (PKD1 [1]; [3]): 2.77 µM
29 | 103 to 110 °C | not inhibitory | O=C1NCCC(=NOCc2ccccc2)c2c1oc1ccc(O)cc21 [kb-NB142-10, 5-(Benzyloxyimino)-7-hydroxy-2,3,4,5-tetrahydro-[1]benzoxolo[2,3-c]azepin-1-one] | 
